{"source": "patent US20070128217A1", "about": "(priority 2003, published 2007)", "key": {"[1]": {"tested_on": "antibodies in sera from SARS patients (sera 1a, 1b, 2, 6, 37, 62, London, SARS-yellow, SARS-green)", "type": "binding, human", "design": "Binding of serum 6 to linear peptides of protein X1 of SARS-CoV Urbani / Binding of serum 37 to linear peptides of protein X1 of SARS-CoV Urbani / Binding of serum 6 to looped/cyclic peptide (PEPSCAN-ELISA) / Binding of serum 37 to looped/cyclic peptide (PEPSCAN-ELISA) / Binding of serum 37 to looped/cyclic peptides of protein X1 of SARS-CoV Urbani / Binding of serum 6 to linear peptides of protein X2 / Binding of serum 37 to linear peptides of protein X2 / Binding of serum 37 to looped/cyclic peptides of protein X2 of SARS-CoV Urbani / Binding of serum 6 to linear peptides of protein M of SARS-CoV Urbani / Binding of serum 37 to linear peptides of protein M of SARS-CoV Urbani / Binding of serum 6 to looped/cyclic peptides of protein M of SARS-CoV Urbani / Binding of serum 37 to looped/cyclic peptides of protein M of SARS-CoV Urbani / Binding of serum 6 to linear peptides of protein X3 of SARS-CoV Urbani / Binding of serum 37 to linear peptides of protein X3 of SARS-CoV Urbani / Binding of serum 37 to looped/cyclic peptides of protein X3 of SARS-CoV Urbani / Binding of serum 6 to linear peptides of protein X4 of SARS-CoV Urbani / Binding of serum 37 to linear peptides of protein X4 of SARS-CoV Urbani / Binding of serum 37 to looped/cyclic peptides of protein X4 of SARS-CoV Urbani / Binding of serum 6 to linear peptides of protein X5 of SARS-CoV Urbani / Binding of serum 37 to linear peptides of protein X5 of SARS-CoV Urbani / Binding of serum 37 to looped/cyclic peptides of protein X5 of SARS-CoV Urbani / Binding of serum 6 to linear peptides of protein N of SARS-CoV Urbani / Binding of serum 37 to linear peptides of protein N of SARS-CoV Urbani / Binding of serum 6 to linear peptide (PEPSCAN-ELISA) / Binding of serum 1a to looped/cyclic peptides of protein N of SARS-CoV Urbani / Binding of serum 1b to looped/cyclic peptides of protein N of SARS-CoV Urbani / Binding of serum 2 to looped/cyclic peptides of protein N of SARS-CoV Urbani / Binding of serum 6 to looped/cyclic peptides of protein N of SARS-CoV Urbani / Binding of serum 37 to looped/cyclic peptides of protein N of SARS-CoV Urbani / Binding of serum 62 to looped/cyclic peptides of protein N of SARS-CoV Urbani / Binding of serum London to looped/cyclic peptides of protein N of SARS-CoV Urbani / Binding of serum SARS-green to looped/cyclic peptides of protein N of SARS-CoV Urbani: unit not given here"}, "[2]": {"tested_on": "control sera (pooled serum of ten healthy LUMC hospital workers; commercial negative donor pooled serum from the Dutch bloodbank)", "type": "binding, human", "design": "Binding of Control serum LUMC to linear peptides / Binding of Control serum Blood-bank to linear peptides / Binding of Control serum LUMC to looped peptides / Binding of Control Serum Blood-Bank to Looped peptides / Binding of Control serum LUMC to linear peptides of the protein M of SARS-CoV Urbani / Binding of Control serum Blood-bank to linear peptides of the protein M of SARS-CoV Urbani / Binding of Control serum LUMC to looped peptides of the protein M of SARS-CoV Urbani / Binding of Control Serum Blood-Bank to Looped peptides of the protein M of SARS-CoV Urbani: unit not given here"}, "[3]": {"tested_on": "rabbit serum obtained by immunizing a rabbit with the SARS-CoV strain Frankfurt 1", "type": "binding", "design": "Binding of a rabbit serum to linear peptides / Binding of a rabbit serum to looped peptides / Rabbit serum linear peptides / Rabbit serum looped peptides / Binding of a rabbit serum to linear peptides of protein N of SARS-CoV Urbani (Rabbit serum linear peptides) / Binding of a rabbit serum to looped/cyclic peptides of protein N of SARS-CoV Urbani (Rabbit serum looped peptides): unit not given here"}}, "data": [{"sequence": "LDVIISSIVRQLFKP", "values": [{"measurement": "Binding of serum 1a to linear peptides of protein X3 of SARS-CoV Urbani", "setting": "[1]", "value": 0.8}, {"measurement": "Binding of serum 1a to looped/cyclic peptides of protein X3 of SARS-CoV Urbani", "setting": "[1]", "value": 0.6}, {"measurement": "Binding of serum 1b to linear peptides of protein X3 of SARS-CoV Urbani", "setting": "[1]", "value": 0.3}, {"measurement": "Binding of serum 1b to looped/cyclic peptides of protein X3 of SARS-CoV Urbani", "setting": "[1]", "value": 0.3}, {"measurement": "Binding of serum 2 to linear peptides of protein X3 of SARS-CoV Urbani", "setting": "[1]", "value": 0.9}, {"measurement": "Binding of serum 2 to looped/cyclic peptides of protein X3 of SARS-CoV Urbani", "setting": "[1]", "value": 0.5}, {"measurement": "Binding of serum 6 to linear peptides of protein X3 of SARS-CoV Urbani", "setting": "[1]", "value": 0.3}, {"measurement": "Binding of serum 6 to looped/cyclic peptides of protein X3 of SARS-CoV Urbani", "setting": "[1]", "value": 0.4}, {"measurement": "Binding of serum 37 to linear peptides of protein X3 of SARS-CoV Urbani", "setting": "[1]", "value": 0.7}, {"measurement": "Binding of serum 37 to looped/cyclic peptides of protein X3 of SARS-CoV Urbani", "setting": "[1]", "value": 0.5}, {"measurement": "Binding of serum 62 to linear peptides of protein X3 of SARS-CoV Urbani", "setting": "[1]", "value": 0.6}, {"measurement": "Binding of serum 62 to looped/cyclic peptides of protein X3 of SARS-CoV Urbani", "setting": "[1]", "value": 0.5}, {"measurement": "Binding of serum London to linear peptides of protein X3 of SARS-CoV Urbani", "setting": "[1]", "value": 0.5}, {"measurement": "Binding of serum London to looped/cyclic peptides of protein X3 of SARS-CoV Urbani", "setting": "[1]", "value": 0.2}, {"measurement": "Binding of serum SARS-green to linear peptides of protein X3 of SARS-CoV Urbani", "setting": "[1]", "value": 0.4}, {"measurement": "Binding of serum SARS-green to looped/cyclic peptides of protein X3 of SARS-CoV Urbani", "setting": "[1]", "value": 0.2}, {"measurement": "Binding of serum SARS-yellow to linear peptides of protein X3 of SARS-CoV Urbani", "setting": "[1]", "value": 0.1}, {"measurement": "Binding of serum SARS-yellow to looped/cyclic peptides of protein X3 of SARS-CoV Urbani", "setting": "[1]", "value": 0.3}, {"measurement": "Binding of Control Serum Blood-Bank to Looped peptides of the protein X3 of SARS-CoV Urbani", "setting": "[2]", "value": 0.7}, {"measurement": "Binding of Control serum Blood-bank to linear peptides of the protein X3 of SARS-CoV Urbani", "setting": "[2]", "value": 0.6}, {"measurement": "Binding of Control serum LUMC to linear peptides of the protein X3 of SARS-CoV Urbani", "setting": "[2]", "value": 0.4}, {"measurement": "Binding of Control serum LUMC to looped peptides of the protein X3 of SARS-CoV Urbani", "setting": "[2]", "value": 0.8}, {"measurement": "Rabbit serum linear peptides", "setting": "[3]", "value": 0.2}, {"measurement": "Rabbit serum looped peptides", "setting": "[3]", "value": 0.0}]}, {"sequence": "LEQWNLVIGFLFLAW", "values": [{"measurement": "Binding of serum 1a to linear peptides of protein M of SARS-CoV Urbani", "setting": "[1]", "value": 0.6}, {"measurement": "Binding of serum 1a to looped/cyclic peptides of protein M of SARS-CoV Urbani", "setting": "[1]", "value": 0.6}, {"measurement": "Binding of serum 1b to linear peptides of protein M of SARS-CoV Urbani", "setting": "[1]", "value": 0.4}, {"measurement": "Binding of serum 1b to looped/cyclic peptides of protein M of SARS-CoV Urbani", "setting": "[1]", "value": 0.3}, {"measurement": "Binding of serum 2 to linear peptides of protein M of SARS-CoV Urbani", "setting": "[1]", "value": 0.6}, {"measurement": "Binding of serum 2 to looped/cyclic peptides of protein M of SARS-CoV Urbani", "setting": "[1]", "value": 0.7}, {"measurement": "Binding of serum 6 to linear peptides of protein M of SARS-CoV Urbani", "setting": "[1]", "value": 0.5}, {"measurement": "Binding of serum 6 to looped/cyclic peptides of protein M of SARS-CoV Urbani", "setting": "[1]", "value": 0.5}, {"measurement": "Binding of serum 37 to linear peptides of protein M of SARS-CoV Urbani", "setting": "[1]", "value": 0.6}, {"measurement": "Binding of serum 37 to looped/cyclic peptides of protein M of SARS-CoV Urbani", "setting": "[1]", "value": 0.7}, {"measurement": "Binding of serum 62 to linear peptides of protein M of SARS-CoV Urbani", "setting": "[1]", "value": 0.7}, {"measurement": "Binding of serum 62 to looped/cyclic peptides of protein M of SARS-CoV Urbani", "setting": "[1]", "value": 0.6}, {"measurement": "Binding of serum London to linear peptides of protein M of SARS-CoV Urbani", "setting": "[1]", "value": 0.4}, {"measurement": "Binding of serum London to looped/cyclic peptides of protein M of SARS-CoV Urbani", "setting": "[1]", "value": 0.2}, {"measurement": "Binding of serum SARS-green to linear peptides of protein M of SARS-CoV Urbani", "setting": "[1]", "value": 0.3}, {"measurement": "Binding of serum SARS-green to looped/cyclic peptides of protein M of SARS-CoV Urbani", "setting": "[1]", "value": 0.3}, {"measurement": "Binding of serum SARS-yellow to linear peptides of protein M of SARS-CoV Urbani", "setting": "[1]", "value": 0.1}, {"measurement": "Binding of serum SARS-yellow to looped/cyclic peptides of protein M of SARS-CoV Urbani", "setting": "[1]", "value": 0.6}, {"measurement": "Binding of Control Serum Blood-Bank to Looped peptides of the protein M of SARS-CoV Urbani", "setting": "[2]", "value": 0.6}, {"measurement": "Binding of Control serum Blood-bank to linear peptides of the protein M of SARS-CoV Urbani", "setting": "[2]", "value": 0.6}, {"measurement": "Binding of Control serum LUMC to linear peptides of the protein M of SARS-CoV Urbani", "setting": "[2]", "value": 0.3}, {"measurement": "Binding of Control serum LUMC to looped peptides of the protein M of SARS-CoV Urbani", "setting": "[2]", "value": 0.5}, {"measurement": "Rabbit serum linear peptides", "setting": "[3]", "value": 0.2}, {"measurement": "Rabbit serum looped peptides", "setting": "[3]", "value": 0.4}]}, {"sequence": "LESTQITTDTGIENA", "values": [{"measurement": "Binding of serum 1a to linear peptides of protein X1 of SARS-CoV Urbani", "setting": "[1]", "value": 0.6}, {"measurement": "Binding of serum 1a to looped/cyclic peptides of protein X1 of SARS-CoV Urbani", "setting": "[1]", "value": 0.4}, {"measurement": "Binding of serum 1b to linear peptides of protein X1 of SARS-CoV Urbani", "setting": "[1]", "value": 0.5}, {"measurement": "Binding of serum 1b to looped/cyclic peptides of protein X1 of SARS-CoV Urbani", "setting": "[1]", "value": 0.3}, {"measurement": "Binding of serum 2 to linear peptides of protein X1 of SARS-CoV Urbani", "setting": "[1]", "value": 0.4}, {"measurement": "Binding of serum 2 to looped/cyclic peptides of protein X1 of SARS-CoV Urbani", "setting": "[1]", "value": 0.2}, {"measurement": "Binding of serum 6 to linear peptides of protein X1 of SARS-CoV Urbani", "setting": "[1]", "value": 0.4}, {"measurement": "Binding of serum 6 to looped/cyclic peptides of protein X1 of SARS-CoV Urbani", "setting": "[1]", "value": 0.2}, {"measurement": "Binding of serum 37 to linear peptides of protein X1 of SARS-CoV Urbani", "setting": "[1]", "value": 0.5}, {"measurement": "Binding of serum 37 to looped/cyclic peptides of protein X1 of SARS-CoV Urbani", "setting": "[1]", "value": 0.3}, {"measurement": "Binding of serum 62 to linear peptides of protein X1 of SARS-CoV Urbani", "setting": "[1]", "value": 0.4}, {"measurement": "Binding of serum 62 to looped/cyclic peptides of protein X1 of SARS-CoV Urbani", "setting": "[1]", "value": 0.4}, {"measurement": "Binding of serum London to linear peptides of protein X1 of SARS-CoV Urbani", "setting": "[1]", "value": 0.2}, {"measurement": "Binding of serum London to looped/cyclic peptides of protein X1 of SARS-CoV Urbani", "setting": "[1]", "value": 0.2}, {"measurement": "Binding of serum SARS-green to linear peptides of protein X1 of SARS-CoV Urbani", "setting": "[1]", "value": 0.1}, {"measurement": "Binding of serum SARS-green to looped/cyclic peptides of protein X1 of SARS-CoV Urbani", "setting": "[1]", "value": 0.2}, {"measurement": "Binding of serum SARS-yellow to linear peptides of protein X1 of SARS-CoV Urbani", "setting": "[1]", "value": 0.2}, {"measurement": "Binding of serum SARS-yellow to looped/cyclic peptides of protein X1 of SARS-CoV Urbani", "setting": "[1]", "value": 0.3}, {"measurement": "Binding of Control Serum Blood-Bank to Looped peptides", "setting": "[2]", "value": 0.4}, {"measurement": "Binding of Control serum Blood-bank to linear peptides", "setting": "[2]", "value": 0.3}, {"measurement": "Binding of Control serum LUMC to linear peptides", "setting": "[2]", "value": 0.4}, {"measurement": "Binding of Control serum LUMC to looped peptides", "setting": "[2]", "value": 0.4}, {"measurement": "Binding of a rabbit serum to linear peptides", "setting": "[3]", "value": 0.1}, {"measurement": "Binding of a rabbit serum to looped peptides", "setting": "[3]", "value": 0.5}]}]}
